What all share (experiment): DSF Tm panel
What all share (format): binding
What all share (conditions): 10 μM compound

One test addresses T1, BMPR2A (Homo sapiens, UniProt Q13873).
T1 construct: purchased in-house DSF kinase panel (SGC-style construct names; the trailing letter is the construct ID)
T1 sequence (Q13873 27-1038): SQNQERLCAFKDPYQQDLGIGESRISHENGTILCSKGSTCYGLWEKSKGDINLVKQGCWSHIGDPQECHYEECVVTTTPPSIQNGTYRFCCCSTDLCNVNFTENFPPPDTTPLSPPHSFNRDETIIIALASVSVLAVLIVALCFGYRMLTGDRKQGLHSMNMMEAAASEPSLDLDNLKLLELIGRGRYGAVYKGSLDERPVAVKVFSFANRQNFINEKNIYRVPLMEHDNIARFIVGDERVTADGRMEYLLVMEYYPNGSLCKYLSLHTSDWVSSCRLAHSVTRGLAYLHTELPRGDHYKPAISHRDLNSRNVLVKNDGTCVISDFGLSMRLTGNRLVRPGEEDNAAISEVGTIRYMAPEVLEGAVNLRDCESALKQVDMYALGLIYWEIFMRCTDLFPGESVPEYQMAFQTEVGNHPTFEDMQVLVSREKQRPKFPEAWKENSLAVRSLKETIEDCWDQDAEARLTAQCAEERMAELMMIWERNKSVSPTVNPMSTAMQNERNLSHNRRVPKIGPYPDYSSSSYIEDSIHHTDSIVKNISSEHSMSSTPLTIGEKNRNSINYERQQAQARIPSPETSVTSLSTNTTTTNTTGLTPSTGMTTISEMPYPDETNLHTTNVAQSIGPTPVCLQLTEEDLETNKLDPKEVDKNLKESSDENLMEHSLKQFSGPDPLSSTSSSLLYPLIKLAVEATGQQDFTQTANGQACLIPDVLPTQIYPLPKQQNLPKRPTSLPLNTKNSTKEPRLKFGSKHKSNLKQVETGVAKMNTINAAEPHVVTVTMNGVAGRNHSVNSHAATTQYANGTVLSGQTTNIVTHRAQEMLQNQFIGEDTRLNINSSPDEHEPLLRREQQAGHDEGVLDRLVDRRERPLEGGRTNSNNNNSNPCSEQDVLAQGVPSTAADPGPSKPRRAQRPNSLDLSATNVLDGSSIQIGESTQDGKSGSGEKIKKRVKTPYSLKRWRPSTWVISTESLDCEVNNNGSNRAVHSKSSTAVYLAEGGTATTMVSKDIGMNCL
As for the experimental part:
(§1) The synthesized urea-based derivatives were evaluated in a panel of kinases by differential scanning fluorescence (DSF) to investigate their selectivity profile. A positive ΔT m in the DSF assay indicates stabilization of the protein upon ligand binding in comparison to its apo state, with higher thermal shifts generally correlating with stronger binding. For this purpose, we used our internal kinase selectivity panel (∼90 kinases) along with staurosporine as a positive control. […] This was also reflected in the overall low selectivity score (S) throughout the series, which is determined by the ratio between the number of kinases that are stabilized above 5 °C and the total number of kinases tested (Figure ). Motivated by these findings, we further validated the entire series by orthogonal binding and activity assays to determine the in vitro and cellular potency and selectivity of the developed series in comparison to the selected reference compounds. […]
(§2) was performed as previously described.[1,2] Briefly, recombinant protein kinase domains at a concentration of 2 μM were mixed with 10 μM compound in a buffer containing 20 mM HEPES, […]
(§3) probe (1 µl per mL). Subsequently, temperature-dependent protein unfolding profiles were […]
(§4) emission filters were set to 465 nm and 590 nm, respectively. The temperature was raised with a step rate of 3 °C per minute. […]
(§5) inflection point of the transition curve. […]
(§6) previously.[3] In brief, STK10, STK3, STK4 and SLK were obtained as plasmids cloned in […]
(§7) Plasmids were transfected into
(§8) KD concentration taken from TracerDB (tracerdb.org)[4] were pipetted into white 384-well

For a further test, the target named is T2, SRCA (Homo sapiens, UniProt P12931).
T2 construct: purchased in-house DSF kinase panel (SGC-style construct names; the trailing letter is the construct ID)
The method, then: as §1, §2, §3, §4, §5, §6, §7, §8

A further test has as its target T3, PAK4A (Homo sapiens, UniProt O96013).
T3 construct: purchased in-house DSF kinase panel (SGC-style construct names; the trailing letter is the construct ID)
As for the experimental part:
as §1, §2, §3, §4, §5, §6, §7, §8

For a further test, the target named is T4, FGFR1B (Homo sapiens, UniProt P11362).
T4 construct: purchased in-house DSF kinase panel (SGC-style construct names; the trailing letter is the construct ID)
As for the experimental part:
as §1, §2, §3, §4, §5, §6, §7, §8

In another test the target is T5, STK17AA (Homo sapiens, UniProt Q9UEE5).
T5 construct: purchased in-house DSF kinase panel (SGC-style construct names; the trailing letter is the construct ID)
T5 sequence (Q9UEE5 61-321): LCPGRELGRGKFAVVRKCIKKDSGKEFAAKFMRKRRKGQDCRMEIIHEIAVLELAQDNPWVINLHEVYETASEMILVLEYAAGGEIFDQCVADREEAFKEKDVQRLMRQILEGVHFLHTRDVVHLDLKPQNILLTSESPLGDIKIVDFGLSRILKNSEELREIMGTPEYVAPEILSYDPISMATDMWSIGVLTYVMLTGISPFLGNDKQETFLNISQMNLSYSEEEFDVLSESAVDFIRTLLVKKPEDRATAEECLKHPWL
The method, then:
as §1, §2, §3, §4, §5, §6, §7, §8

The next test concerns the target T6, CHEK2A (Homo sapiens, UniProt O96017).
T6 construct: purchased in-house DSF kinase panel (SGC-style construct names; the trailing letter is the construct ID)
As for the experimental part:
as §1, §2, §3, §4, §5, §6, §7, §8

The target of the next test is T7, ULK1A (Homo sapiens, UniProt O75385).
T7 construct: purchased in-house DSF kinase panel (SGC-style construct names; the trailing letter is the construct ID)
T7 sequence (O75385 1-283): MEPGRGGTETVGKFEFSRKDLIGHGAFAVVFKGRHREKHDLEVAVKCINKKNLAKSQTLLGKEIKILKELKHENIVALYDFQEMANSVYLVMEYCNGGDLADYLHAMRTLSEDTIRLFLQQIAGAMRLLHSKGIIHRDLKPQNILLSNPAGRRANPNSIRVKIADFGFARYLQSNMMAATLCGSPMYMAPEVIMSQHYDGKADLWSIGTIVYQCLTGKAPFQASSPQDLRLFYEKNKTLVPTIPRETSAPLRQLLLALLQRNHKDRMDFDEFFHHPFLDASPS
As for the experimental part: as §1, §2, §3, §4, §5, §6, §7, §8

The next test has as its system TAF1A. As for the experimental part:
as §1, §2, §3, §4, §5, §6, §7, §8

For the next test, the target named is T8, PLK4A (Homo sapiens, UniProt O00444).
T8 construct: purchased in-house DSF kinase panel (SGC-style construct names; the trailing letter is the construct ID)
T8 sequence (O00444 2-275): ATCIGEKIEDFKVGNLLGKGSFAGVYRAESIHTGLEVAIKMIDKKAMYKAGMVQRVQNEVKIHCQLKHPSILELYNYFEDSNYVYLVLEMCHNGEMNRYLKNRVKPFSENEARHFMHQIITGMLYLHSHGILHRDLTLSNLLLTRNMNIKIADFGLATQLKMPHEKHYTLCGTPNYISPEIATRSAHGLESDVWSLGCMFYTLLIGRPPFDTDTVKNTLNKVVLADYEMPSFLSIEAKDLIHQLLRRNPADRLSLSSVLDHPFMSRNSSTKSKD
The method, then: as §1, §2, §3, §4, §5, §6, §7, §8

The next test deals with T9, BRAFA (Homo sapiens, UniProt P15056).
T9 construct: purchased in-house DSF kinase panel (SGC-style construct names; the trailing letter is the construct ID)

The target in another test is T10, AKT3A (Homo sapiens, UniProt Q9Y243).
T10 construct: purchased in-house DSF kinase panel (SGC-style construct names; the trailing letter is the construct ID)

In a further test the target is T11, EPHA7A (Homo sapiens, UniProt Q15375).
T11 construct: purchased in-house DSF kinase panel (SGC-style construct names; the trailing letter is the construct ID)

Molecules are shown by their SMILES.

T10 sequence (Q9Y243 148-479): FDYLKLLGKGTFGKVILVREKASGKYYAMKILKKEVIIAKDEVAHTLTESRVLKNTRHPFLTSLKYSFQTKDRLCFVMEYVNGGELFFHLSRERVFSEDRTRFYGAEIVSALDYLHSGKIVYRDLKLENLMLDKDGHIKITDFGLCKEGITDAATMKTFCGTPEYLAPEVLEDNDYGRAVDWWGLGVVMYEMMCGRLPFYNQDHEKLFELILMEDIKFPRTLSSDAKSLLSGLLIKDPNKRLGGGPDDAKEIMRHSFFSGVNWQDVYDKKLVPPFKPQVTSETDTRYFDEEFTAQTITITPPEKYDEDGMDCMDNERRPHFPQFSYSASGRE
T2 sequence (P12931 254-536): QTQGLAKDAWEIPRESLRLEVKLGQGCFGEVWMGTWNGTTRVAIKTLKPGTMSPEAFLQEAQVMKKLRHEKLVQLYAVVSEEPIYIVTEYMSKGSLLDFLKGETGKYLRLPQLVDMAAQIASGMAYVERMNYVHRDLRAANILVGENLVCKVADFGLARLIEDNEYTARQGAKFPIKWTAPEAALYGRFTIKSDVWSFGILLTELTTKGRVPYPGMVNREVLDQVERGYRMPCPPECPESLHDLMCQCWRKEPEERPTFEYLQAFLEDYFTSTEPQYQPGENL
T6 sequence (O96017 210-531): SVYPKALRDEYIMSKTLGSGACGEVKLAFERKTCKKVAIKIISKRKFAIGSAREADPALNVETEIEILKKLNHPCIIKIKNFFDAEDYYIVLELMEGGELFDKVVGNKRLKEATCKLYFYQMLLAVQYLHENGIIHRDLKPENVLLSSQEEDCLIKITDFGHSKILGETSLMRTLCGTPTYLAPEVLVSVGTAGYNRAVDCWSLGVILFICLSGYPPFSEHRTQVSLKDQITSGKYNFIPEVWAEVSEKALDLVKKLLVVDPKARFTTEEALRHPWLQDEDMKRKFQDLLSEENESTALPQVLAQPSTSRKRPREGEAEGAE
T4 sequence (P11362 456-767): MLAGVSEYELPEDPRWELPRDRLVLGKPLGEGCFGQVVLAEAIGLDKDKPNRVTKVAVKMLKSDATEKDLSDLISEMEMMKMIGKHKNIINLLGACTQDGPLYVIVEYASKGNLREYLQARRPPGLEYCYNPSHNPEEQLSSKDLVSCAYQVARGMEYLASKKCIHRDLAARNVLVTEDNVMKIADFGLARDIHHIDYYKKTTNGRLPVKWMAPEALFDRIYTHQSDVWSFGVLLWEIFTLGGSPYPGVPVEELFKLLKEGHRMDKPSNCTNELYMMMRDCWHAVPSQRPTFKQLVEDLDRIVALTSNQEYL
T3 sequence (O96013 291-591): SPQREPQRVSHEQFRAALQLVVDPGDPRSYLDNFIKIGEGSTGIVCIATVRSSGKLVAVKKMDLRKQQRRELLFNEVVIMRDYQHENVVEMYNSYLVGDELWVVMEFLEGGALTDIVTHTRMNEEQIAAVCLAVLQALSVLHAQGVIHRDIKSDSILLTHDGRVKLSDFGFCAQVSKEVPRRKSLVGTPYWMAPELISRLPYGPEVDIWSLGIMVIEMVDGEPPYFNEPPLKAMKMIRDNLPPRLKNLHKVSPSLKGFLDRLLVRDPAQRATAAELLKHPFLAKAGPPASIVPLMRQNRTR
T11 sequence (Q15375 590-899): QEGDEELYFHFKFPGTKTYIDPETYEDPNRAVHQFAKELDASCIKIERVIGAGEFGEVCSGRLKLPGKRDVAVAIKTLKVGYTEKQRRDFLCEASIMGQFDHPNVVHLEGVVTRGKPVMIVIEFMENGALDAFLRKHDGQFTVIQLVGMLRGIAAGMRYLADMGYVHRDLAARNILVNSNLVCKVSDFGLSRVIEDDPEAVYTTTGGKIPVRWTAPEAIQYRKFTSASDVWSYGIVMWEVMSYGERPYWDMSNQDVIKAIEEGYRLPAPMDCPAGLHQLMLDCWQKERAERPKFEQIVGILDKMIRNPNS
T9 sequence (P15056 448-723): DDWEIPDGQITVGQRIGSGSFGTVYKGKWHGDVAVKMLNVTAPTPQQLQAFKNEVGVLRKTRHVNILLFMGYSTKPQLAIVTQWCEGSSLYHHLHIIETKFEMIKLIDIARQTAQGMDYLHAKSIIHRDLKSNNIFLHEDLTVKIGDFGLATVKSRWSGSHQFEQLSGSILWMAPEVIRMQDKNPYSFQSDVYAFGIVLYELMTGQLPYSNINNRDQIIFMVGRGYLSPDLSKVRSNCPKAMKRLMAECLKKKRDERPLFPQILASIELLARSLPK

Usually ΔTm stands for the change in melting temperature against a reference sample. `O=C(NCc1ccccc1C(F)(F)F)Nc1ccc2cc1OCCOCCNc1ccn3ncc-2c3n1` [compound 27]: the ΔTm at 10 µM is 2.8 °C at BMPR2A; 2.5 °C at SRCA; 2.1 °C on PAK4A; 1.3 °C on FGFR1B; 4 °C on STK17AA; 9.9 °C at CHEK2A. Also, the ΔTm at 10 µM was 0.4 °C at ULK1A; 3.9 °C at PLK4A; -0.4 °C on BRAFA; -0.1 °C on AKT3A; 3 °C on EPHA7A. For the same compound, in the test on TAF1A, the “ΔTm TAF1A” value was 0,1 °C.

In the case of `O=C(NCc1ccc(C(F)(F)F)cc1)Nc1ccc2cc1OCCOCCNc1ccn3ncc-2c3n1` [compound 28], the ΔTm at 10 µM at BMPR2A is 3.2 °C; on SRCA, 2.3 °C; at PAK4A, 2.4 °C; on FGFR1B it was 1.5 °C; at STK17AA, 2.4 °C; at CHEK2A, 7.7 °C. For the same compound, the shift in melting temperature (ΔTm) at 10 µM on ULK1A is 0.6 °C; at PLK4A, 3.3 °C; at BRAFA it was 0 °C; on AKT3A, 0.4 °C; on EPHA7A it was 3.5 °C. Besides, in the test with TAF1A, the “ΔTm TAF1A” value is 0,3 °C.

For `COc1ccccc1CNC(=O)Nc1ccc2cc1OCCOCCNc1ccn3ncc-2c3n1` [compound 29], the ΔTm at 10 µM on BMPR2A worked out at 4 °C; on SRCA, 2 °C; at PAK4A it was 1.3 °C; at FGFR1B it was 1.4 °C; on STK17AA, 3.1 °C; at CHEK2A, 5.8 °C. Also, the thermal shift (ΔTm) at 10 µM at ULK1A was 0.4 °C; at PLK4A it was 3 °C; at BRAFA it was -0.4 °C; on AKT3A, 0.3 °C; at EPHA7A, 1.1 °C. Moreover, the “ΔTm TAF1A” value in the test on TAF1A is 0,0 °C.

For `COc1cccc(CNC(=O)Nc2ccc3cc2OCCOCCNc2ccn4ncc-3c4n2)c1` [compound 30], the ΔTm at 10 µM on BMPR2A is 4.3 °C; on SRCA it was 2.7 °C; at PAK4A, 1.5 °C; on FGFR1B, 1.4 °C; on STK17AA, 5.8 °C; on CHEK2A, 5.1 °C. The ΔTm at 10 µM is 0.5 °C on ULK1A; 3.5 °C on PLK4A; -0.2 °C on BRAFA; 0.2 °C on AKT3A; 1.5 °C on EPHA7A. Also, in the test on TAF1A, the “ΔTm TAF1A” value is -0,1 °C.

`COc1ccc(CNC(=O)Nc2ccc3cc2OCCOCCNc2ccn4ncc-3c4n2)cc1` [compound 31]: the ΔTm at 10 µM was 4.6 °C at BMPR2A; 3.2 °C on SRCA; 1.7 °C at PAK4A; 1.5 °C at FGFR1B; 5.1 °C at STK17AA; 7 °C at CHEK2A. Also, the ΔTm at 10 µM on ULK1A is 0.6 °C; at PLK4A, 4.9 °C; at BRAFA it was -0.5 °C; at AKT3A it was 1.6 °C; at EPHA7A, 1.8 °C. In addition, the “ΔTm TAF1A” value in the test on TAF1A was 0,0 °C.

Regarding `COc1ccc(CNC(=O)Nc2ccc3cc2OCCOCCNc2ccn4ncc-3c4n2)cc1F` [compound 32], the ΔTm at 10 µM on BMPR2A turned out to be 4.4 °C; at SRCA, 2.6 °C; at PAK4A, 2 °C; at FGFR1B, 1.2 °C; on STK17AA, 5.3 °C; on CHEK2A, 6.8 °C. For the same compound, the ΔTm at 10 µM was 0.5 °C at ULK1A; 4.6 °C at PLK4A; -0.2 °C on BRAFA; 0.8 °C on AKT3A; 2.9 °C on EPHA7A. Further, the “ΔTm TAF1A” value with TAF1A was 0,2 °C.

Source of the values: publication PMC12621043, “Un-LOK-ing a New Approach for Conformational Selective Targeting of STK10 (LOK)” (ACS Medicinal Chemistry Letters, 2025).
